Laboratory results published in patent US8580806B2, “Salts of 4-methyl N-[3-(4-methyl-imidazol-1-yl)-5-trifluoromethyl-phenyl]-3-(4-pyridin-3-yl-pyrimidin-2-ylamino)-benzamide” (Novartis AG, priority 2005, dated 2013).
Where a name gives a salt, the structure may show the parent alone.

Columns and labels:
Format in all cases: physicochemical
[1] = Solid-state behaviour of the hydrochloride salt (equilibration, grinding, compression)
[2] = Stability of solutions or suspensions (Table 15)
[3] = Solid state stability: heat, humidity, xenon light (Table 15)
[4] = Intrinsic Dissolution Rate (rotating disk method); details: Water, 37° C., 200 rpm
Procedure: Intrinsic Dissolution Rate (IDR): Dissolution rate measurements were performed at 37° C. using the rotating disk method (VanKell Instrument). A single rotation speed of 200 rpm was used. For IDR in 0.1 N HCl, an 800 mL volume, and for IDE in water, a 200 mL volume were used. The solution was continuously pumped through a UV measuring cell and recycled to the dissolution vessel.

[5] = Decomposition temperature by TGA; details: as stated in the description of the embodiments; listed as hydrochloride salt
Procedure: The LOD and decomposition temperature of the salts of the invention were determined by TGA, and the melting point was determined by DSC.

[6] = pH of 1% solution or suspension in water; details: 1% in water
[7] = Hygroscopicity by TGA after one day at ambient temperature and 93% relative humidity; details: ambient temperature, listed as Hydrochloride (form B)
Procedure: The hygroscopicity of the salts of the invention was determined by TGA after one day at ambient temperature and 93% relative humidity.

Bulk corrosivity = details: 2 day, 80% relative humidity with steel coupon
[8] = Hygroscopicity (moisture uptake v. relative humidity); details: when first tested
Procedure: Hygroscopicity: Sorption/desorption isotherms were collected using a Surface Measurements Systems dynamic vapor sorption device (DVS-1). The measurements were carried out at 25° C.

[9] = 0.1% solutions or suspensions, 1 week at 80° C., Acetonitrile
[10] = 0.1% solutions or suspensions, 1 week at 80° C., Ethanol
[11] = 0.1% solutions or suspensions, 1 week at 80° C., Methanol
[12] = 0.1% solutions or suspensions, 1 week at 80° C., Water (pH measured: 4.74; pH measured for HCl salt: 4.22)
[13] = 0.1% solutions or suspensions, 1 week at 80° C., pH 1 (pH measured: 1.26)
[14] = 0.1% solutions or suspensions, 1 week at 80° C., pH 2 (pH measured: 2.00)
[15] = 0.1% solutions or suspensions, 1 week at 80° C., pH 3 (pH measured: 2.94)
[16] = 0.1% solutions or suspensions, 1 week at 80° C., pH 5 (pH measured: 5.01)
[17] = 0.1% solutions or suspensions, 1 week at 80° C., pH 7 (pH measured: 6.02)
[18] = 0.1% solutions or suspensions, 1 week at 80° C., pH 9 (pH measured: 8.92)
[19] = 0.1% solutions or suspensions, 1 week at 80° C., pH 11 (pH measured: 10.86)
[20] = 0.1% solutions or suspensions, PH 1, 1 week @ 50° C.
[21] = 2% solutions or suspensions, 1 day at room temperature, 0.5% CMC
[22] = 2% solutions or suspensions, 1 day at room temperature, 0.5% HPMC cellulose 4000
[23] = 2% solutions or suspensions, 1 day at room temperature, 0.8% Tween 80
[24] = 5% solutions in DMSO, 1 day at room temperature, 1:100 dilution in pH 6.8 buffer
[25] = Solid state, 1 week 80° C., 75% relative humidity, 30% in mixture 1
[26] = Solid state, 1 week 80° C., 75% relative humidity, 30% in mixture 2
[27] = Solid state, 1 week 80° C., 75% relative humidity, Bulk (HPLC)
[28] = Solid state, 1 week 80° C., tight container, 30% in mixture 1
[29] = Solid state, 1 week 80° C., tight container, 30% in mixture 2
[30] = Solid state, 1 week 80° C., tight container, Bulk (HPLC)
[31] = Xenon light (approximately 200 kLuxh), Bulk (HPLC)

Cc1cn(-c2cc(NC(=O)c3ccc(C)c(Nc4nccc(-c5cccnc5)n4)c3)cc(C(F)(F)F)c2)cn1 [Hydrochloride monohydrate (form B), 4-methyl-N-[3-(4-methyl-imidazol-1-yl)-5-trifluoromethyl-phenyl]-3-(4-pyridin-3-yl-pyrimidin-2-ylamino)-benzamide monohydrochloride monohydrate salt]
behaviour upon compression ([1]; compression): can withstand compression | behaviour upon grinding ([1]; grinding): becomes amorphous | Appearance [2, 9]: B↓ | Assay [2, 9]: 100.33 | Assay [% area]: bracketed % area [2, 9]: 100.00 % area | Appearance [2, 10]: A* | Assay [2, 10]: 100.41 | Assay [% area]: bracketed % area [2, 10]: 100.00 % area | Appearance [2, 11]: A* | Assay [2, 11]: 99.169 | Assay [% area]: bracketed % area [2, 11]: 98.72 % area | Appearance [2, 12]: A↓ | Assay [2, 12]: 101.43 | Assay [% area]: bracketed % area [2, 12]: 100.00 % area | Appearance [2, 13]: A* | Assay [2, 13]: 46.68 | Assay [% area]: bracketed % area [2, 13]: 42.93 % area | Appearance [2, 14]: B↓ | Assay [2, 14]: 91.77 | Assay [% area]: bracketed % area [2, 14]: 91.61 % area | Appearance [2, 15]: B↓ | Assay [2, 15]: 98.84 | Assay [% area]: bracketed % area [2, 15]: 100.00 % area | Appearance [2, 16]: A↓ | Assay [2, 16]: 100.02 | Assay [% area]: bracketed % area [2, 16]: 100.00 % area | Appearance [2, 17]: B↓ | Assay [2, 17]: 99.56 | Assay [% area]: bracketed % area [2, 17]: 100.00 % area | Appearance [2, 18]: B↓ | Assay [2, 18]: 101.19 | Assay [% area]: bracketed % area [2, 18]: 100.00 % area | Appearance [2, 19]: B↓ | Assay [2, 19]: 102.19 | Assay [% area]: bracketed % area [2, 19]: 100.00 % area | Appearance [2, 20]: A* | Assay [2, 20]: 94.14 | Assay [% area]: bracketed % area [2, 20]: 93.21 % area | Appearance [2, 21]: A↓ | Assay [2, 21]: 103.06 | Assay [% area]: bracketed % area [2, 21]: 100.00 % area | Appearance [2, 22]: A↓ | Assay [2, 22]: 100.44 | Assay [% area]: bracketed % area [2, 22]: 100.00 % area | Appearance [2, 23]: A↓ | Assay [2, 23]: 102.42 | Assay [% area]: bracketed % area [2, 23]: 100.00 % area | Appearance [2, 24]: A↓ | Assay [2, 24]: 101.85 | Assay [% area]: bracketed % area [2, 24]: 100.00 % area | Assay ([2]; Unstressed): 99.10 | Assay [% area]: bracketed % area ([2]; Unstressed): 100.00 % area | Bulk (XRPD) ([3]; Solid state, 1 week 80° C., 75% relative humidity): No change | Assay [3, 25]: 100.88 | Assay [% area]: bracketed % area [3, 25]: 100.00 % area | Assay [3, 26]: 92.17 | Assay [% area]: bracketed % area [3, 26]: 97.99 % area | Assay [3, 27]: 100.71 | Assay [% area]: bracketed % area [3, 27]: 100.00 % area | Bulk (XRPD) ([3]; Solid state, 1 week 80° C., tight container): No change | Assay [3, 28]: 101.23 | Assay [% area]: bracketed % area [3, 28]: 100.00 % area | Assay [3, 29]: 93.43 | Assay [% area]: bracketed % area [3, 29]: 97.82 % area | Assay [3, 30]: 100.77 | Assay [% area]: bracketed % area [3, 30]: 100.00 % area | Bulk (XRPD) ([3]; Xenon light (approximately 200 kLuxh)): No change | Assay [3, 31]: 99.73 | Assay [% area]: bracketed % area [3, 31]: 100.00 % area | Intrinsic dissolution rate [4]: 0.0024 mg min^−1 cm^−2 | decomposes at [5]: about 173 °C | pH of 1% solution or suspension in water [6]: 2.53 | % moisture gain [7]: 0.20% | Bulk corrosivity (Bulk corrosivity): No change | moisture uptake ([8]; 60% relative humidity): up to 2% | moisture uptake ([8]; 95% relative humidity): up to 2.7%
